Measured values published in patent publication US20200062719A1, “Application of Imidazopyridine Derivatives in Regenerative Medicine” (University of Heidelberg, priority 2018, published 2020).

Tests used:
KDM5B = target: T1, KDM5B (Homo sapiens, UniProt Q9UGL1); assay: KDM5B inhibition, enzyme immunoprecipitated from cells; assay type: biochemical
T1 construct: magnetic beads were used to immunoprecipitate the respective enzymes from 10^8 cells; endogenous in cells
Description: (§1) In mammalian cells, the KDM5 family consists of four members, namely, KDM5A (known as JARID1A), KDM5B (known as JARID1B or PLU1), KDM5C (JARID1C), and KDM5D (JARID1D or SMCY). […] Next, the inventors tested four KDM chemical inhibitors. […] The inventors detected the induction of OCT4, SOX2, and E-Cadherin expression in JIB-04-treated HFs (FIG. 18D).
(§2) Epiquik histone demethylase (H3K4 specific) activity/inhibition assay kit (Epigentek, Biocat, Germany) was used to measure the protective effect of O4I3 and zolpidem on the methylation of H3K4. Their inhibitory effects on LSD1, KDM5s, and KDM4 were determined using Epigenase jarid demethylase activity/inhibition assay kit, Epigenase JMJD2 demethylase activity/inhibition assay kit and EpiQuik histone demethylase LSD1 activity/inhibition assay kit (Epigentek, Biocat, Germany). The total nuclear extraction was used according to manufacturer's instructions. For measuring KDM5A, KDM5B, KDM5C, and KDM5D activity, magnetic beads were used to immunoprecipitate the respective enzymes from 10^8 cells according to the manufacturer's instructions (Cell Signaling Technologies).

LSD1 = target: T2, LSD1 (Homo sapiens, UniProt O60341); assay: LSD1 demethylase inhibition, nuclear extraction; assay type: biochemical; details: even at a concentration of 100 mM
T2 construct: using the whole-cell nuclear extraction; endogenous in cells
Description: (§3) HMT and HDM are two major classes of enzymes, contributing to the regulation of histone methylation. Lysine-specific demethylase 1 (LSD1) and histone lysine demethylase 5 (KDM5, also known as JARID1) majorly catalyze demethylation of H3K4. A few KDM5 chemical inhibitors have been reported to inhibit demethylation of H3K4, leading to an increase of global methylated H3K4 in various cell types. The inventors tested the inhibitory effect of O4I3 on LSD1 and KDM5. KDM4 (also known as JMJD2), the HDM of H3K9 and H3K36, was also included.
as §2

KDM5 = KDM5 demethylase inhibition, whole-cell nuclear extraction; assay type: biochemical; details: whole-cell nuclear extraction
Description: as §3, §2

KDM4 [1] = target: T3, KDM4; assay: KDM4 (JMJD2) demethylase inhibition, nuclear extraction; assay type: biochemical; details: whole-cell nuclear extraction
T3 construct: other: whole-cell nuclear extraction; other: micromolar concentrations
Description: as §3, §2

KDM4 [2] = assay: as above; assay type: biochemical
Description: as §3, §2

[3] = test system: reprogramming-related proteins; assay: Phosphorylation microarray in NCCIT and JoPaca-1 cells; assay type: cell-based; details: NCCIT and JoPaca-1, 1 μM, 24 hours
Description: Cells were analysed in the presence (24 hours O4I3 1 μM) or absence (NT) of O4I3.
The cellular responses to O4I3 was analyzed in two stem cell lines, NCCIT and JoPaca-1 (FIG. 10).

neural stem cells = assay: Maintenance of neural stem cells, MTT viability; assay type: cell-based; details: starting from 1 nM
Description: Neural stem cells were cultivated in SPN medium (DMEM-F12 Knockout medium containing 2% StemPro® NSC SFM, EGF (20 ng/mL) and FGF (20 ng/mL)) until cell confluence reached 80-90%. Acutase was used to get single cell suspension and washed with PBS. 20,000 cells/[…] were seeded into matrigel-coated plates using SPN medium with or without O4I3. The MTT assay was applied to determine cell viability.
The self-renewal of multipotent neural stem cells was also tested with the compound of the current invention. Neural stem cells were cultivated in SPN medium with or without O4I3 at different final concentrations (FIG. 7). The MTT assay was applied to determine cell viability. Starting from a concentration of 1 nM O4I3 the viability of neural stem cells was increased in comparison to mock treated neural stem cells.

methylated H3K4 = assay: In vitro H3K4 methylation assay (Epiquik histone demethylase H3K4 specific kit); assay type: biochemical; details: in vitro methylation assay; read-out: IC50, protection of methylated H3K4
Description: as §2

hiPSCs = assay: iPSC single cell expansion, viability by MTT assay; assay type: cell-based, human; details: versus absence of O4I3
Description: Since O4I3 induced sustainable expression of Oct4 and Nanog, the inventors questioned if it supports iPSC self-renewal in single cell expansion. Therefore, the viability of iPSCs, after replating Accutase®-dissociated single iPSCs, was tested in the presence or absence of O4I3. Rocki (Y-27632) was used for the first 24 h to increase iPSCs survival. A nearly 300% higher viability in cells treated with O4I3 (1 nM) was observed. Using 50 nM of O4I3 even 400% increase was observed (FIG. 2A). FACS analysis confirmed homologous expression of iPSCs markers, Tra-1-81 and Oct4, for at least 30 passages (FIG. 2B).
iPSC single cell expansion was performed according to a well-established protocol known in the art (Watanabe et al, Nat Biotechnol, 2007, 25(6), 681-6). Briefly, iPSCs were dissociated with Accutase® as single cell suspension and re-seeded in a Geltrex-coated 96-well plate in the presence of Rock inhibitor for the first 24 h in combination with/without O4I3. Cell viability was performed in MTT assay as disclosed elsewhere (Cheng et al, Mol Oncol. 2016 June; 10(6):806-24).

KDM5D = target: T4, KDM5D (Homo sapiens, UniProt Q9BY66); assay: KDM5D inhibition, enzyme immunoprecipitated from cells; assay type: biochemical
T4 construct: magnetic beads were used to immunoprecipitate the respective enzymes from 10^8 cells; endogenous in cells
T4 sequence (Q9BY66 whole entry): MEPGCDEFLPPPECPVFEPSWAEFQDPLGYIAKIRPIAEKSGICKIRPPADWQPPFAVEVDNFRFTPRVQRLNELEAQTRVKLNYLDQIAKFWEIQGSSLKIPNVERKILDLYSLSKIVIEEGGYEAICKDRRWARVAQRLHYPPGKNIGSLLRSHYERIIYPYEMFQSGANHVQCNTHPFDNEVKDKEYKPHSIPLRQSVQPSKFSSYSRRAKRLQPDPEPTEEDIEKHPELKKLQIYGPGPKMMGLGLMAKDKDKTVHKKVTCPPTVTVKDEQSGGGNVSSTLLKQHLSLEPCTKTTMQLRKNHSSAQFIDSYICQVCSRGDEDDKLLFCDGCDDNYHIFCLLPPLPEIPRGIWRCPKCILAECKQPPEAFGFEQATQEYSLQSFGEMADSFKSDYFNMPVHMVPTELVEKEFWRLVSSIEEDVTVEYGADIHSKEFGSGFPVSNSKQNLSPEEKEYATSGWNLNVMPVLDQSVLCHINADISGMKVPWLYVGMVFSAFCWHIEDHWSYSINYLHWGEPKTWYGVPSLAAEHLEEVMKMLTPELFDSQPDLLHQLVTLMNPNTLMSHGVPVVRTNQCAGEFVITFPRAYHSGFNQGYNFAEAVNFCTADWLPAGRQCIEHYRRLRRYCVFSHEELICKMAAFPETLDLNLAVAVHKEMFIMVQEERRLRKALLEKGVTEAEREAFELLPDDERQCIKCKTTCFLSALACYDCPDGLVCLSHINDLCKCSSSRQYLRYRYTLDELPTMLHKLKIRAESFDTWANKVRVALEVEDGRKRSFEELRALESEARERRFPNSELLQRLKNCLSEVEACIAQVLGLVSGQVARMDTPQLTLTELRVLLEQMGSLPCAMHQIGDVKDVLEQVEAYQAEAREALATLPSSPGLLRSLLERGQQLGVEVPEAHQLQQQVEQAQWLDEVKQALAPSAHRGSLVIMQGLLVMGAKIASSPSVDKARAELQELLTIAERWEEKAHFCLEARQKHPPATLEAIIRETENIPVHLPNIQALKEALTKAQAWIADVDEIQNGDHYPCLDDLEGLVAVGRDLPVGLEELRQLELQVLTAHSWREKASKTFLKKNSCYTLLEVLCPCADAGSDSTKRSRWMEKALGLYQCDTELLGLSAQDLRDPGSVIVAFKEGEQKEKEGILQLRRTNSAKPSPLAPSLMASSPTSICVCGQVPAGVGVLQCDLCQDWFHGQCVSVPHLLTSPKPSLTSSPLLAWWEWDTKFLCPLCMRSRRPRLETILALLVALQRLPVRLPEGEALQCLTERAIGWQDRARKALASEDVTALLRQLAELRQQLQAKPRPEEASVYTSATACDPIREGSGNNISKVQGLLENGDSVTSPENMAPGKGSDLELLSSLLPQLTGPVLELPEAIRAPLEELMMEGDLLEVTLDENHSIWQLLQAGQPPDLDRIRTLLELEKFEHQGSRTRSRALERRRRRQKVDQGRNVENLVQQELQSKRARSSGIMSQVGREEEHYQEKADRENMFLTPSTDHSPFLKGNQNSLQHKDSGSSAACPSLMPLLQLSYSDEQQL
Description: as §1, §2

Oct4 = assay: Luciferase reporter assay in NCCIT-Oct4 cells; assay type: cell-based, human
Description: The ability of the lead compound to induce Oct4 at translational level was tested in a luciferase reporter cell line in human embryonic carcinoma NCCIT cells driven by Oct4 response elements (NCCIT-Oct4). The compound lead to a nearly 10-fold induction of Oct4 at 10 nM compared to untreated cells (FIG. 1B). Consequently, the lead compound was named “Oct4 inducing compound 3” (O4I3).
Luciferase reporter assay was performed using Beatle Juice Kit (PJK, Germany) according to the manufacturer's instruction. NCCIT-Oct and NCCIT-Nanog reporter cells were plated into a 24-well plate (100,000 cells/well) for 24 h. Cells were treated with compounds as indicated and harvested with luciferase lysis buffer (25 mM Tris phosphate buffer pH=7.8, 4 mM EGTA, 1% Triton X-100, 10% glycerol and 2 mM fresh DTT, filtered through 0.45 μm sterile filter) at 37° C. for 15 min. The protein concentration was determined by Bradford assay (Sigma, Germany). 100 μL reaction mixture containing luciferin and ATP was added to 20 μL cell lysis in a white plate (Gibco, Germany), incubated for 5 min and measured by a luminometer plate-reader. The activity was determined as percent luminous intensity of treated cells over control cells from at least five-independent experiments.

T1 sequence (Q9UGL1 whole entry): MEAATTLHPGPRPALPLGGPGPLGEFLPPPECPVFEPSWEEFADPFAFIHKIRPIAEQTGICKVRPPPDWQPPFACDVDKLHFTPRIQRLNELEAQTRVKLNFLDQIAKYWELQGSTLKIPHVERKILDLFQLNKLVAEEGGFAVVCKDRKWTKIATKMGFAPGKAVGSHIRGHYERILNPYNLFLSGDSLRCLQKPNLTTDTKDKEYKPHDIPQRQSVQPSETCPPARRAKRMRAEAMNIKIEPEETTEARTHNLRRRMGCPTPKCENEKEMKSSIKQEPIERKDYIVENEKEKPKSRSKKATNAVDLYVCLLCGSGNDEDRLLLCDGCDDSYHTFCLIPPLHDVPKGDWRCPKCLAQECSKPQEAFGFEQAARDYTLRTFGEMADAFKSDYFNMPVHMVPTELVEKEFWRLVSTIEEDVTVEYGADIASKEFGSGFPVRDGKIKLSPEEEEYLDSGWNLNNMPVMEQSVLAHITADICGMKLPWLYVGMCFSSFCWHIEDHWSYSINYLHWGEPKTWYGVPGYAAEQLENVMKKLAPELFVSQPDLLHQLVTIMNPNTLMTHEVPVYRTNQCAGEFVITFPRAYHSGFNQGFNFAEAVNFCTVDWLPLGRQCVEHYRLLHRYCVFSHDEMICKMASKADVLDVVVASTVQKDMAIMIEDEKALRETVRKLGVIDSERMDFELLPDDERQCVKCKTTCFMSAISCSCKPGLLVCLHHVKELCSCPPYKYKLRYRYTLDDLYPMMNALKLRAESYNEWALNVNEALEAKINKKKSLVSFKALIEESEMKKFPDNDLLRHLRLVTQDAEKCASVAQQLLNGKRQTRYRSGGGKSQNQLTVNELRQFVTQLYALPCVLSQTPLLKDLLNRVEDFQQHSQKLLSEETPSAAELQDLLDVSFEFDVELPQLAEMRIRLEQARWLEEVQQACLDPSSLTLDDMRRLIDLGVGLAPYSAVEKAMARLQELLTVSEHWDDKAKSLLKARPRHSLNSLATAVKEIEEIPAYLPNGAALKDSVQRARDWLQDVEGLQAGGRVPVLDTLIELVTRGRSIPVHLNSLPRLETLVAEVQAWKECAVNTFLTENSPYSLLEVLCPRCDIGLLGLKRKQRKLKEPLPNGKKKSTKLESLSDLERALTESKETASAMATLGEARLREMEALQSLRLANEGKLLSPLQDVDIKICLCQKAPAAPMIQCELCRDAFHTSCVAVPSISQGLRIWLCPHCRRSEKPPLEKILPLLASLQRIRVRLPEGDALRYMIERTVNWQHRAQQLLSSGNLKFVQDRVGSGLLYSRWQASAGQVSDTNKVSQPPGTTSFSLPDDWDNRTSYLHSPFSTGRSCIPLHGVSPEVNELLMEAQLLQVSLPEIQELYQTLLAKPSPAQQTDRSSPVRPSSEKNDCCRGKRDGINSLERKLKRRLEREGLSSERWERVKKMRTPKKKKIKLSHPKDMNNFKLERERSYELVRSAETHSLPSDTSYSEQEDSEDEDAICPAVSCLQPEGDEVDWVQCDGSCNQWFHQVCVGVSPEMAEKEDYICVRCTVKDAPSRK

Cc1ccc(-c2cn3cc(C)ccc3n2)cc1 [O4I3, 6-methyl-2-(p-tolyl)imidazo[1,2-a]pyridine]
IC50 less potent than for KDM5A, KDM5B (KDM5B): 1,000 fold | inhibitory effect on LSD1 (LSD1): hardly detected the inhibitory effect | IC50 (KDM5): 0.79 nM | IC50 (KDM4 [1]): 249 nM | less potency on KDM4 than on KDM5 (KDM4 [2]): 500 fold | activation of Erk1 [3]: selectively activated | activation of Erk2 [3]: not | viability of neural stem cells in comparison to mock treated (neural stem cells): increased | IC50 (methylated H3K4): 20 nM | higher viability of iPSCs in single cell expansion (hiPSCs; 1 nM): ~300% | higher viability of iPSCs in single cell expansion (hiPSCs; 50 nM): 400% | IC50 less potent than for KDM5A, KDM5D (KDM5D): 20 fold | induction of Oct4 compared to untreated cells (Oct4; 10 nM, NCCIT-Oct4 cells, 48 h): ~10 fold | time course of Oct4 activation (Oct4; over 4 days): continuous and constant activation
